This is an account of results in ChEMBL document CHEMBL4312043, “Discovery of Novel Neuraminidase Inhibitors by Structure-Based Virtual Screening, Structural Optimization, and Bioassay” (ACS Med Chem Lett, 2019).

Experiment [1] is described as follows: Inhibition of clostridium neuraminidase using fluorescent substrate preincubated for 2 mins followed by substrate addition and measured after 30 mins by fluorescence based microplate reader analysis.
The target in experiment [2] is Neuraminidase (Influenza A virus (A/Puerto Rico/8/1934(H1N1)), UniProt P03468). As to the kind of experiment: Inhibition of Influenza A virus H1N1 neuraminidase using MU-NANA as substrate preincubated for 10 mins followed by substrate addition and measured after 15 mins by fluorescence based assay.

By IC50 is commonly meant the point on the concentration scale where inhibition reaches its midpoint. Higher therefore signals weaker potency.

Sequence of Neuraminidase (Influenza A virus (A/Puerto Rico/8/1934(H1N1)), UniProt P03468) (P03468 whole entry): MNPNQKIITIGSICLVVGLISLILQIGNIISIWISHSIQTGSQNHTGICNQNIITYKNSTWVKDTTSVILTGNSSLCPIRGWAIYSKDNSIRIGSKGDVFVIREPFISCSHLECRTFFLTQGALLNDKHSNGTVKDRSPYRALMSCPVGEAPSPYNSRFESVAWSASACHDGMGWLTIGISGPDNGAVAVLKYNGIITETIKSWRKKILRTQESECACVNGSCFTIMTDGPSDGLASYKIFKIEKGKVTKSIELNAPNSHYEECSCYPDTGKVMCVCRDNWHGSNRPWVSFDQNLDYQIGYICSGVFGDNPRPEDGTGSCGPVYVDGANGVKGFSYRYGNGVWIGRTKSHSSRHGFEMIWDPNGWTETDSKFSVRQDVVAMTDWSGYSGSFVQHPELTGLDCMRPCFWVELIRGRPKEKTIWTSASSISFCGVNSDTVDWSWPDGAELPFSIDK

The compound `COc1cc(/C=N\NC(=O)c2ccc(Cn3cc(Br)c([N+](=O)[O-])n3)o2)cc(OC)c1O` gave an IC50 in experiment [1] of 12.9 µM.
On the same count and under the same terms, in the case of `CCOC(=O)c1ccc(N/N=C/c2cc(Br)cc([N+](=O)[O-])c2O)cc1` it was 16 µM.
`CC1=NN(c2cccc(C(=O)O)c2)C(=O)/C1=C\c1ccc(-c2cc(Cl)ccc2C(=O)O)o1` yielded an IC50 in experiment [2] of 37 µM.
Compound `COc1ccc(Br)cc1C(=O)N/N=C/c1ccc(Oc2ccc([N+](=O)[O-])cc2C#N)cc1` returned an IC50 in experiment [1] of 7.71 µM.
The same measure, in the same setting: in the case of `O=C(N/N=C/c1ccc(OS(=O)(=O)c2ccccc2)cc1)c1cccc([N+](=O)[O-])c1` it was 8.44 µM; in that of `O=C(N/N=C/c1cc([N+](=O)[O-])ccc1F)c1cc(O)c(O)c(O)c1`, 36.6 µM.
Still for that read-out and setting: the value for `O=C(N/N=C/c1cc(Cl)ccc1[N+](=O)[O-])c1cc(O)c(O)c(O)c1` was 10.6 µM; that for `O=C(N/N=C/c1cc([N+](=O)[O-])ccc1F)c1cc(O)cc(O)c1` was 3.97 µM; that for `CC(=O)Nc1ccc(/C=N/NC(=O)c2cc(O)cc(O)c2)cc1` was 13.8 µM.
On the same count and under the same terms, in the case of `COc1cc(/C=N/NC(=O)c2cc(O)cc(O)c2)ccc1O` it was 11.6 µM.
Compound `O=C(N/N=C/c1ccc(O)c([N+](=O)[O-])c1)c1cc(O)cc(O)c1` registered an IC50 in experiment [1] of 0.21 µM. Compared with the last compound, the IC50 is about 55-fold lower.
The same measure, in the same setting: the value for `O=C(N/N=C/c1ccc(F)c([N+](=O)[O-])c1)c1cc(O)c(O)c(O)c1` was 22.7 µM; that for `COc1cc(/C=N/NC(=O)c2cc(O)cc(O)c2)cc(OC)c1O` was 14.8 µM.
Regarding `O=C(N/N=C/c1cc(Cl)ccc1[N+](=O)[O-])c1cc(O)cc(O)c1`, in experiment [1], inhibition was half-maximal at 3.71 µM (IC50).
Same read-out and setting: in the case of `O=C(N/N=C/c1cc([N+](=O)[O-])ccc1O)c1cc(O)cc(O)c1` it was 1.92 µM; in that of `O=C(N/N=C/c1ccc(F)c([N+](=O)[O-])c1)c1cc(O)cc(O)c1`, 5.47 µM; in that of `O=C(N/N=C/c1ccc(O)c([N+](=O)[O-])c1)c1cc(O)c(O)c(O)c1`, 9.67 µM.
Turning to `CCC(CC)O[C@@H]1C=C(C(=O)O)C[C@H](N)[C@H]1NC(C)=O` [OSELTAMIVIR CARBOXYLATE], the IC50 in experiment [1] came to 3.04 µM.
